From the NIST ThermoML archive (doi:10.1016/j.jct.2007.03.011)
Several values for one entry are separate records, joined by “and”; a condition that tells them apart may be missing. Identical values can stand only once. Numbers after ± are expanded uncertainties.

Details: Liquid, Transpiration method

Structure (SMILES): N#CCCO [3-hydroxypropanenitrile]
- vapor or sublimation pressure (306.3 K): 0.01564 ± 0.00078 kPa
- vapor or sublimation pressure (311.3 K): 0.02299 ± 0.0011 kPa
- vapor or sublimation pressure (314.3 K): 0.02755 ± 0.0014 kPa
- vapor or sublimation pressure (317.3 K): 0.03639 ± 0.0018 kPa
- vapor or sublimation pressure (318.6 K): 0.03759 ± 0.0019 kPa
- vapor or sublimation pressure (321.4 K): 0.04504 ± 0.0023 kPa
- vapor or sublimation pressure (321.7 K): 0.04955 ± 0.0025 kPa
- vapor or sublimation pressure (323.3 K): 0.05382 ± 0.0027 kPa
- vapor or sublimation pressure (325.4 K): 0.06297 ± 0.0032 kPa
- vapor or sublimation pressure (326.3 K): 0.06361 ± 0.0032 kPa
- vapor or sublimation pressure (328.6 K): 0.07507 ± 0.0038 kPa
- vapor or sublimation pressure (331.4 K): 0.08563 ± 0.0043 kPa and 0.09147 ± 0.0046 kPa
- vapor or sublimation pressure (333.4 K): 0.1054 ± 0.0053 kPa
- vapor or sublimation pressure (336.3 K): 0.1286 ± 0.0065 kPa
- vapor or sublimation pressure (336.4 K): 0.1232 ± 0.0063 kPa
- vapor or sublimation pressure (338.5 K): 0.1442 ± 0.0072 kPa
- vapor or sublimation pressure (340.4 K): 0.1598 ± 0.008 kPa
- vapor or sublimation pressure (341.5 K): 0.1816 ± 0.0091 kPa
- vapor or sublimation pressure (343.4 K): 0.2025 ± 0.01 kPa
- vapor or sublimation pressure (346.6 K): 0.2592 ± 0.013 kPa
- vapor or sublimation pressure (351.7 K): 0.3404 ± 0.017 kPa
- vapor or sublimation pressure (356.8 K): 0.4425 ± 0.022 kPa
- vapor or sublimation pressure (361.8 K): 0.5765 ± 0.029 kPa
